Key:
HCT116 cells = assay: Antiproliferative activity, Alamar Blue assay, HCT116 cells; format: cell-based, human; parameters: key to HCT116 antiproliferative activity pIC50: pIC50 = -log IC50 (IC50: conc. reducing growth to 50% of control); conditions: for IC50: Homo sapiens, HCT-116, HCT116 cells, read-out: HCT116 antiproliferative activity pIC50 (converted)
In short: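 Readout is resazurin fluorescence (ex 540, em 590 nm) after a 4 h dye incubation at 37 °C, following 4-day compound treatment of HCT116 cells plated 24 h earlier. Results expressed as % viable cells versus untreated; pIC50 derived from probit-fitted IC50.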

PC3 cells = assay: EB1 Comet (microtubule disruption) assay; format: cell-based, human; conditions: 1 hour treatment; for minimal effective concentration: Homo sapiens, PC-3, 1 h, read-out: EB1 pLAC (converted)
In short: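 Readout is loss of Eb1 plus-end foci, scored by immunofluorescence microscopy, in PC3 cells after 1 h compound treatment at 37 °C with 0.6% final DMSO. LAC is defined as the lowest concentration leaving at least 50% of cells without Eb1 foci.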

tubulin = assay: Tubulin polymerization assay; format: biochemical; parameters: key: a compound showing 0 to 50% inhibition at 20 μM is reported as score 1; Score 2 compounds are defined as compound showing more than 50% inhibition at 20 μM and less than 50% inhibition at 5 μM; a compound showing more than 50% inhibition at 5 μM is reported as score 3; conditions: tested at 20 μM and 5 μM
Description: The tubulin polymerization assay is an adaptation of an assay originally described by Bonne, D. et al. (J. Biol. Chem., 1985, 260:2819-25). The assay kit was purchased from Cytoskeleton, Inc. (catalogue number BK011) and the assay was performed as described by the supplier with the following modifications. The assay was run in a 384-well black Proxiplate (Perkin Elmer) and volumes were adapted accordingly. The reactions were carried out in a final volume of 10 μl. Compounds were added to 25 μl of the reaction mix in 96-well PP plates (Corning) on ice and 10 μl of this mixture was dispensed into duplicates of the 384-well Proxiplates pre-warmed to 37° C. in a Fluoroskan Ascent plate reader (Thermo Scientific). Fluorescence measurements were taken every minute for one hour. The maximum slope of each well was determined (linear regression through 4 consecutive points) and polymerization was calculated as a percentage of polymerization observed in the absence of compound. Compounds were first measured at a concentration of 20 μM and then at 5 μM for those showing more than 50% inhibition at 20 μM as compared to the polymerization observed in the absence of compound. Results are reported in Table F-2 as scores defined as: a compound showing 0 to 50% inhibition at 20 μM is reported as score 1; a compound showing more than 50% inhibition at 5 μM is reported as score 3.

IC50 (HCT116 cells) | melting point | HCT116 antiproliferative activity pIC50 (HCT116 cells; HCT116 cells) | Compound | minimal effective concentration (PC3 cells) | tubulin polymerisation score (tubulin) | EB1 pLAC (PC3 cells)
2510 nM | 170 °C |  | CCc1cc2ccc(C(C)(C#N)Cc3cccc(-c4cnn(C)c4)c3)cc2[nH]c1=O (stereo not drawn) [Compound 17] | 3.16 µM |  | 
5010 nM | 192 °C |  | CCc1cc2ccc(C(C)(C#N)Cc3cccc(-c4ccccc4)c3)cc2[nH]c1=O (stereo not drawn) [Compound 18] | 1 µM |  | 
200 nM | 193 °C |  | CCc1cc2ccc(C(C)(C#N)Cc3cccc(N(C)C)c3)cc2[nH]c1=O (stereo not drawn) [Compound 20] | 0.1 µM |  | 
1260 nM | 162 °C |  | CCc1cc2ccc(C(C)(C#N)Cc3cccc(N4CCOCC4)c3)cc2[nH]c1=O (stereo not drawn) [Compound 21] | 1 µM |  | 
> 10000 nM | 217 °C |  | CCc1cc2ccc(C(C)(C#N)Cc3cccc(O)c3)cc2[nH]c1=O (stereo not drawn) [Compound 22] |  |  | 
3160 nM | 150 °C |  | CCc1cc2ccc(C(C)(C#N)Cc3cccc(OCc4ccccc4)c3)cc2[nH]c1=O (stereo not drawn) [Compound 23] | 10 µM |  | 
1000 nM | 134 °C |  | CCc1cc2ccc(C(C)(C#N)Cc3cccc(OCCOC)c3)cc2[nH]c1=O (stereo not drawn) [Compound 24] | 1 µM |  | 
100 nM | 212 °C |  | CCc1cc2ccc(C(C)(C#N)Cc3cc(C)cc(C#N)c3)cc2[nH]c1=O (stereo not drawn) [Compound 174] | 0.1 µM |  | 
2000 nM | 124 °C |  | CCc1cc2ccc(C(C)(C#N)Cc3cccc(S(F)(F)(F)(F)F)c3)cc2[nH]c1=O (stereo not drawn) [Compound 177] | 1 µM |  | 
2000 nM | > 250 °C |  | CCc1cc2ccc(C(C)(C#N)Cc3cccc(C4(N)CC4)c3)cc2[nH]c1=O (stereo not drawn) [Compound 180] | 3.16 µM |  | 
6310 nM | > 250 °C |  | CCc1cc2cc(C)c(C(C)(C#N)Cc3cccc(C#N)n3)cc2[nH]c1=O (stereo not drawn) [Compound 208] |  |  | 
3160 nM | 222 °C |  | CCc1cc2ccc(C(C)(C#N)Cc3ccc(Cl)nc3Cl)cc2[nH]c1=O (stereo not drawn) [Compound 212] |  |  | 
3160 nM |  |  | CCc1cc2ccc(C(C)(C#N)Cc3ccc(C(F)(F)F)nc3C)cc2[nH]c1=O (stereo not drawn) [Compound 340] | 10 µM | 1 (a compound showing 0 to 50% inhibition at 20 μM is reported as score 1) | 
501 nM |  |  | CCc1cc2ccc(C(C#N)(CC)Cc3cccc(C#N)n3)cc2[nH]c1=O (stereo not drawn) [Compound 342] | 3.16 µM | 3 (a compound showing more than 50% inhibition at 5 μM is reported as score 3) | 
631 nM |  |  | CCc1cc2ccc(C(C)(C#N)CCOc3ncc(Br)cn3)cc2[nH]c1=O (stereo not drawn) [Compound 349] | 1 µM | 2 | 
316 nM |  |  | CCc1cc2ccc(C(C)(C#N)Cc3nc(C)cc(OC)n3)cc2[nH]c1=O (stereo not drawn) [Compound 371] | 0.316 µM | 1 (a compound showing 0 to 50% inhibition at 20 μM is reported as score 1) | 
2000 nM |  |  | CCc1cc2ccc(C(C)(C#N)CN3CCc4ccccc4C3)cc2[nH]c1=O (stereo not drawn) [Compound 376] | 3.16 µM | 1 (a compound showing 0 to 50% inhibition at 20 μM is reported as score 1) | 
7940 nM |  |  | CCc1cc2ccc([C@](C)(C#N)C[C@H]3Cc4ccccc4O3)cc2[nH]c1=O [Compound 397] | 3.16 µM | 1 (a compound showing 0 to 50% inhibition at 20 μM is reported as score 1) | 
5010 nM |  |  | CCc1cc2ccc(C(C)(C#N)CC3Oc4ccccc4O3)cc2[nH]c1=O (stereo not drawn) [Compound 398] | 3.16 µM | 2 | 
 |  | 6.7 | CCc1cc2ccc(C(C)(C#N)Cc3cc(F)cc(F)c3)cc2[nH]c1=O (stereo not drawn) [Compound 402] |  | 1 (a compound showing 0 to 50% inhibition at 20 μM is reported as score 1) | 6.5
